Active and inactive are the calls of the source. No cut-off for these calls is given here.
Tests used:
[1] = molecular target: Tyrosine-protein kinase BTK (Homo sapiens) (UniProt Q06187); assay: Inhibition of BTK (unknown origin) assessed as enzyme residual activity at 10 uM by radiometric protein kinase assay
[2] = molecular target: Tyrosine-protein kinase Lyn (Homo sapiens) (UniProt P07948); assay: Inhibition of Lyn (unknown origin) assessed as enzyme residual activity at 10 uM by radiometric protein kinase assay
[3] = molecular target: Tyrosine-protein kinase SYK (Homo sapiens) (UniProt P43405); assay: Inhibition of Syk (unknown origin) assessed as enzyme residual activity at 10 uM by radiometric protein kinase assay
[4] = Growth inhibition of human HBL2 cells after 24 hrs by MTT assay; assay type: functional; details: HBL2, 24 h
[5] = Growth inhibition of human HBL2 cells after 48 hrs by MTT assay; assay type: functional; details: HBL2, 48 h
[6] = Growth inhibition of human Rec1 cells after 24 hrs by MTT assay; assay type: functional; details: Rec1, 24 h
[7] = Growth inhibition of human Rec1 cells after 48 hrs by MTT assay; assay type: functional; details: Rec1, 48 h
[8] = molecular target: Tyrosine-protein kinase SYK (Homo sapiens) (UniProt P43405); assay: Inhibition of Syk phosphorylation in human Rec1 cells at 0.1 to 5 uM incubated for 6 hrs by Western blotting method; assay type: cell-based
[9] = molecular target: Tyrosine-protein kinase Lyn (Homo sapiens) (UniProt P07948); assay: Inhibition of Lyn phosphorylation in human Rec1 cells at 0.1 to 5 uM incubated for 6 hrs by Western blotting method; assay type: cell-based
[10] = molecular target: Tyrosine-protein kinase BTK (Homo sapiens) (UniProt Q06187); assay: Inhibition of BTK phosphorylation in human Rec1 cells at 1 uM incubated for 6 hrs by Western blotting method; assay type: cell-based
[11] = molecular target: Tyrosine-protein kinase BTK (Homo sapiens) (UniProt Q06187); assay: Inhibition of BTK phosphorylation in human Rec1 cells at 5 uM incubated for 6 hrs by Western blotting method; assay type: cell-based
[12] = molecular target: Tyrosine-protein kinase Lyn (Homo sapiens) (UniProt P07948); assay: Inhibition of Lyn phosphorylation in human Rec1 cells at 2.5 uM incubated for 6 hrs by Western blotting method; assay type: cell-based
[13] = Solubility in water; assay type: physicochemical
[14] = Inhibition of cell proliferation of human Rec1 cells at 5 uM after 24 hrs by MTT assay; assay type: functional; details: Rec1, 24 h
[15] = Growth inhibition of human UPN1 cells after 24 hrs by MTT assay; assay type: functional; details: UPN1, 24 h
[16] = Growth inhibition of human JeKo1 cells after 24 hrs by MTT assay; assay type: functional; details: JeKo-1, 24 h
[17] = Growth inhibition of human JVM2 cells after 24 hrs by MTT assay; assay type: functional; details: JVM-2, 24 h
[18] = Growth inhibition of human Maver1 cells after 24 hrs by MTT assay; assay type: functional; details: Maver1, 24 h
[19] = Growth inhibition of human Mino cells after 24 hrs by MTT assay; assay type: functional
[20] = Growth inhibition of human GRANTA-519 cells after 24 hrs by MTT assay; assay type: functional; details: Granta-519, 24 h
[21] = Growth inhibition of human Z138C cells after 24 hrs by MTT assay; assay type: functional
[22] = Growth inhibition of human MEC2 cells after 24 hrs by MTT assay; assay type: functional; details: MEC2, 24 h
[23] = Growth inhibition of human JVM13 cells after 24 hrs by MTT assay; assay type: functional; details: JVM13, 24 h
[24] = Growth inhibition of human MEC1 cells after 24 hrs by MTT assay; assay type: functional; details: MEC1, 24 h
[25] = Growth inhibition of human DOHH2 cells after 24 hrs by MTT assay; assay type: functional; details: DOHH-2, 24 h
WSU-NHL [26] = assay: Growth inhibition of human WSU-NHL cells after 24 hrs by MTT assay; assay type: functional
[27] = Growth inhibition of human WSU-FSCCL cells after 24 hrs by MTT assay; assay type: functional
[28] = Growth inhibition of human SC1 cells after 24 hrs by MTT assay; assay type: functional; details: SC-1, 24 h
[29] = Growth inhibition of human OCI-Ly8 cells after 24 hrs by MTT assay; assay type: functional; details: OCI-Ly8, 24 h
[30] = Growth inhibition of human SUDHL8 cells after 24 hrs by MTT assay; assay type: functional; details: SU-DHL-8, 24 h
[31] = Growth inhibition of human U2932 cells after 24 hrs by MTT assay; assay type: functional; details: U2932, 24 h
[32] = Growth inhibition of human SUDHL16 cells after 24 hrs by MTT assay; assay type: functional; details: SU-DHL-16, 24 h
[33] = Growth inhibition of human JeKo1 cells after 48 hrs by MTT assay; assay type: functional; details: JeKo-1, 48 h
[34] = Growth inhibition of human UPN1 cells after 48 hrs by MTT assay; assay type: functional; details: UPN1, 48 h
[35] = Growth inhibition of human JVM2 cells after 48 hrs by MTT assay; assay type: functional; details: JVM-2, 48 h
[36] = Growth inhibition of human Maver1 cells after 48 hrs by MTT assay; assay type: functional; details: Maver1, 48 h
[37] = Growth inhibition of human Mino cells after 48 hrs by MTT assay; assay type: functional
[38] = Growth inhibition of human GRANTA-519 cells after 48 hrs by MTT assay; assay type: functional; details: Granta-519, 48 h
[39] = Growth inhibition of human Z138C cells after 48 hrs by MTT assay; assay type: functional
[40] = Growth inhibition of human MEC2 cells after 48 hrs by MTT assay; assay type: functional; details: MEC2, 48 h
[41] = Growth inhibition of human JVM13 cells after 48 hrs by MTT assay; assay type: functional; details: JVM13, 48 h
[42] = Growth inhibition of human MEC1 cells after 48 hrs by MTT assay; assay type: functional; details: MEC1, 48 h
[43] = Growth inhibition of human DOHH2 cells after 48 hrs by MTT assay; assay type: functional; details: DOHH-2, 48 h
WSU-NHL [44] = assay: Growth inhibition of human WSU-NHL cells after 48 hrs by MTT assay; assay type: functional
[45] = Growth inhibition of human WSU-FSCCL cells after 48 hrs by MTT assay; assay type: functional
[46] = Growth inhibition of human SC1 cells after 48 hrs by MTT assay; assay type: functional; details: SC-1, 48 h
[47] = Growth inhibition of human OCI-Ly8 cells after 48 hrs by MTT assay; assay type: functional; details: OCI-Ly8, 48 h
[48] = Growth inhibition of human SUDHL8 cells after 48 hrs by MTT assay; assay type: functional; details: SU-DHL-8, 48 h
[49] = Growth inhibition of human U2932 cells after 48 hrs by MTT assay; assay type: functional; details: U2932, 48 h
[50] = Growth inhibition of human SUDHL16 cells after 48 hrs by MTT assay; assay type: functional; details: SU-DHL-16, 48 h
[51] = Growth inhibition of bortezomib-resistant human JBR cells after 24 hrs by MTT assay; assay type: functional
[52] = Growth inhibition of bortezomib-resistant human JBR cells after 48 hrs by MTT assay; assay type: functional
PBMC = assay: Induction of apoptotic cell death in human PBMCs at 1 to 10 uM after 24 hrs by Annexin V and propidium iodide staining based flow cytometry

Tyrosine-protein kinase Lyn (Homo sapiens), sequence (P07948 2-512 limits assumed): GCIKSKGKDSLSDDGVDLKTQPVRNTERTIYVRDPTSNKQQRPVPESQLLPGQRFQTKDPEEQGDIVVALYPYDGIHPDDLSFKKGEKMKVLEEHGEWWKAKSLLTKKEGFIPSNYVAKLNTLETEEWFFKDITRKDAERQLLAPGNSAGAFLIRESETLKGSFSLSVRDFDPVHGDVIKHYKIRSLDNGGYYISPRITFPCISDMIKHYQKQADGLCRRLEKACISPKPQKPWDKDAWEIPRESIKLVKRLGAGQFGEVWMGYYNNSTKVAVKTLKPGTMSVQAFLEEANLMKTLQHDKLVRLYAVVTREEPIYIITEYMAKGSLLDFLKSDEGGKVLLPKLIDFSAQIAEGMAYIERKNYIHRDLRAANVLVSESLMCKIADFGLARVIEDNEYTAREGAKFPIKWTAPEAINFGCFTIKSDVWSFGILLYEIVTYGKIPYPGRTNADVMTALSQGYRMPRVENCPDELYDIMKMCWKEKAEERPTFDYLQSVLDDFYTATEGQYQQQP
Tyrosine-protein kinase BTK (Homo sapiens), sequence (Q06187 whole entry): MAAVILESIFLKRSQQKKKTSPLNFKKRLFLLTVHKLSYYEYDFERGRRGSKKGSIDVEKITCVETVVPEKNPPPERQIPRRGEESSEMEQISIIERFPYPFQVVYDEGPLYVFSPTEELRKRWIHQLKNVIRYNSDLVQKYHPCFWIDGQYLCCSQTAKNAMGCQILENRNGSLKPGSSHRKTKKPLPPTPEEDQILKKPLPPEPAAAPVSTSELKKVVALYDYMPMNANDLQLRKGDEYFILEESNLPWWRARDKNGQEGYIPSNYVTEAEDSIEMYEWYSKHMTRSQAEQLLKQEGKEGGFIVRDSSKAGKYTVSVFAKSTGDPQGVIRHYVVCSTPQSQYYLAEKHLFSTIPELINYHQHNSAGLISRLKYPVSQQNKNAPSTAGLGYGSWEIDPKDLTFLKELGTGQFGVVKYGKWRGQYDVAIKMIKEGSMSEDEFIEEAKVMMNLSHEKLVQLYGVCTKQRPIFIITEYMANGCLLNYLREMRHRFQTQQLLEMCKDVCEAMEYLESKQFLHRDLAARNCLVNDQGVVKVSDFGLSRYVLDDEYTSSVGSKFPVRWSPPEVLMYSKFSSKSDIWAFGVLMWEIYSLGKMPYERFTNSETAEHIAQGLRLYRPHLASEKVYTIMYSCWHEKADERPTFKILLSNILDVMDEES

Cn1c(=O)c(-c2c(Cl)cccc2Cl)cc2c(N)nc(Nc3ccc(NCCN4CCOCC4)cc3)nc21
Activity [1]: 10%
Activity [2]: 0%
Activity [3]: 31%

Nc1nc(Nc2ccccc2)nc2c1CC(c1c(Cl)cccc1Cl)CN2 (stereo not drawn)
GI50 [4]: 7.5 µM
GI50 [5]: 2400 nM
GI50 [6]: 4 µM
GI50 [7]: 1300 nM

CN1CCN(c2ccc(Nc3nc(N)c4cc(-c5c(Cl)cccc5Cl)c(=O)n(C)c4n3)cc2)CC1 [listing 1 of 2 here]
Activity [1]: 3%
Activity [2]: -1%
Activity [3]: 9%
inhibition [8]: Dose-dependent effect
inhibition [9]: Dose-dependent effect
inhibition [10]: 10%
inhibition [11]: 40%
inhibition [12]: Active

CN1CCN(c2ccc(Nc3nc(N)c4cc(-c5c(Cl)cccc5Cl)c(=O)n(C)c4n3)cc2)CC1.CS(=O)(=O)O
solubility [13]: 10000 µg/mL

Cn1c(=O)c(-c2c(Cl)cccc2Cl)cc2c(N)nc(Nc3ccc(OCCN4CCOCC4)cc3)nc21
Activity [1]: 16%
Activity [2]: 0%
Activity [3]: 44%

CN1CCN(c2ccc(Nc3nc(N)c4cc(-c5c(Cl)cccc5Cl)c(=O)n(C)c4n3)cc2)CC1 [listing 2 of 2 here]
GI50 [4]: 4.9 µM
GI50 [5]: 2600 nM
GI50 [6]: 3.2 µM
GI50 [7]: 3000 nM
inhibition at 5 µM [14]: 63%
GI50 [15]: 3.6 µM
GI50 [16]: 3.6 µM
GI50 [17]: 3.6 µM
GI50 [18]: 3.6 µM
GI50 [19]: 3.6 µM
GI50 [20]: 3.6 µM
GI50 [21]: 3.6 µM
GI50 [22]: 5.9 µM
GI50 [23]: 5.9 µM
GI50 [24]: 5.9 µM
GI50 [25]: 3.7 µM
GI50 (WSU-NHL [26]): 3.7 µM
GI50 [27]: 3.7 µM
GI50 [28]: 3.7 µM
GI50 [29]: 5.4 µM
GI50 [30]: 5.4 µM
GI50 [31]: 5.4 µM
GI50 [32]: 5.4 µM
GI50 [33]: 3000 nM
GI50 [34]: 3000 nM
GI50 [35]: 3000 nM
GI50 [36]: 3000 nM
GI50 [37]: 3000 nM
GI50 [38]: 3000 nM
GI50 [39]: 3000 nM
GI50 [40]: 4.9 µM
GI50 [41]: 4.9 µM
GI50 [42]: 4.9 µM
GI50 [43]: 2700 nM
GI50 (WSU-NHL [44]): 2700 nM
GI50 [45]: 2700 nM
GI50 [46]: 2700 nM
GI50 [47]: 5 µM
GI50 [48]: 5 µM
GI50 [49]: 5 µM
GI50 [50]: 5 µM

COc1cc(Nc2ncc(F)c(Nc3ccc4c(n3)NC(=O)C(C)(C)O4)n2)cc(OC)c1OC [R-406]
inhibition [12]: Active
inhibition at 5 µM [14]: 31%

Nc1nc(Nc2ccccc2)nc2c1CC(c1c(Cl)cccc1Cl)C(=O)N2 (stereo not drawn)
GI50 [4]: 12 µM
GI50 [5]: 5700 nM
GI50 [6]: > 100 µM
GI50 [7]: 52300 nM

CN1C(=O)C(c2c(Cl)cccc2Cl)Cc2c(N)nc(Nc3ccccc3)nc21 (stereo not drawn)
GI50 [4]: > 100 µM
GI50 [5]: 1700 nM
GI50 [6]: 67.2 µM
GI50 [7]: 1300 nM

Cn1c(=O)c(-c2c(Cl)cccc2Cl)cc2c(N)nc(Nc3ccccc3)nc21
GI50 [4]: 1.7 µM
GI50 [5]: 400 nM
GI50 [6]: 1.8 µM
GI50 [7]: 700 nM
GI50 [51]: 3.1 µM
GI50 [52]: 900 nM
Activity (PBMC): 3%
solubility [13]: < 1 µg/mL

C=CC(=O)N1CCC[C@@H](n2nc(-c3ccc(Oc4ccccc4)cc3)c3c(N)ncnc32)C1 [IBRUTINIB]
inhibition [12]: Active
inhibition at 5 µM [14]: 3%

Nc1nc(Nc2ccccc2)nc2[nH]c(=O)c(-c3c(Cl)cccc3Cl)cc12
GI50 [4]: 8.8 µM
GI50 [5]: > 100000 nM
GI50 [6]: 12.1 µM
GI50 [7]: > 100000 nM

Nc1nc(N)c2c(n1)NC(=O)C(c1c(Cl)cccc1Cl)C2 (stereo not drawn)
GI50 [4]: > 100 µM
GI50 [5]: > 100000 nM
GI50 [6]: > 100 µM
GI50 [7]: > 100000 nM

— ChEMBL document CHEMBL3352413, “4-Amino-2-arylamino-6-(2,6-dichlorophenyl)-pyrido[2,3-d]pyrimidin-7-(8H)-ones as BCR kinase inhibitors for B lymphoid malignancies” (Eur J Med Chem, 2014)
